In ChEMBL document CHEMBL5241054, “Effective anti-aromatase therapy to battle against estrogen-mediated breast cancer: Comparative SAR/QSAR assessment on steroidal aromatase inhibitors” (Eur J Med Chem, 2020):
Several values for one entry are separate records, joined by “and”; a condition that tells them apart may be missing. Equal values may be shown once.

Experiments:
Aromatase [1] = target: T1, Aromatase (Homo sapiens, UniProt P11511)
T1 sequence (P11511 whole entry): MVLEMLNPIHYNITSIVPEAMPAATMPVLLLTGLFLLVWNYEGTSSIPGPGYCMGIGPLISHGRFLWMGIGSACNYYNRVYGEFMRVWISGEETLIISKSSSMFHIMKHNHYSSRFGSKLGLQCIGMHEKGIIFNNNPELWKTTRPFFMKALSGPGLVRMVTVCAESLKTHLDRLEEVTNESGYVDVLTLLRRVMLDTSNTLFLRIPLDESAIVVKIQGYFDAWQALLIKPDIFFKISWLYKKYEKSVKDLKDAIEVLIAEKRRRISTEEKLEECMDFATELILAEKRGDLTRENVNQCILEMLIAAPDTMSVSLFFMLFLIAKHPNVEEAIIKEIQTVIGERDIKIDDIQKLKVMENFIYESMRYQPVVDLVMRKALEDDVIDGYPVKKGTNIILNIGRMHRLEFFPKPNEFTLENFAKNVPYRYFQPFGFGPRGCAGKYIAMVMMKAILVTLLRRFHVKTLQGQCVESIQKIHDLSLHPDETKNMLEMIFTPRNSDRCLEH

Aromatase [2] = target: T1, Aromatase; remark: listed apart in the source
Aromatase [3] = target: T1, Aromatase; remark: listed apart in the source
Aromatase [4] = target: T1, Aromatase; assay: Binding affinity to aromatase (unknown origin) assessed as change in gibbs free energy

Compound	IC50 (Aromatase [1])	IC50 (Aromatase [2]) [nM]	pIC50 (Aromatase [3])	deltaG (Aromatase [4]) [kcal/mol]
C[C@]12C=CC(=O)C=C1C[C@@H](Cc1ccccc1)[C@@H]1[C@@H]2CC[C@]2(C)C(=O)CC[C@@H]12	232 nM	19.2	–	–
C[C@]12CCC(=O)C=C1C=C(CCc1ccccc1)[C@@H]1[C@@H]2CC[C@]2(C)C(=O)CC[C@@H]12	661 nM	174	–	–
C[C@]12C=CC(=O)C=C1C[C@@H](CCCc1ccc([N+](=O)[O-])cc1)[C@@H]1[C@@H]2CC[C@]2(C)C(=O)CC[C@@H]12	12.9 nM	75.7	–	–
C[C@]12C=CC(=O)C=C1C[C@@H](CCCc1ccccc1)[C@@H]1[C@@H]2CC[C@]2(C)C(=O)CC[C@@H]12	7.69 nM	63.7	–	–
C[C@]12C=CC(=O)C=C1C[C@@H](CCc1ccccc1)[C@@H]1[C@@H]2CC[C@]2(C)C(=O)CC[C@@H]12	16.7 nM	155	–	–
C[C@]12CCC(=O)C=C1C=C(CCc1ccc([N+](=O)[O-])cc1)[C@@H]1[C@@H]2CC[C@]2(C)C(=O)CC[C@@H]12	4500 nM	95.1	–	–
C[C@]12CCC(=O)C=C1C=C(CCc1ccc(N)cc1)[C@@H]1[C@@H]2CC[C@]2(C)C(=O)CC[C@@H]12	1250 nM	87.9	–	–
C[C@]12CC[C@H](O)CC1=CC[C@@H]1[C@@H]2CC[C@]2(C)C(=O)[C@@H](n3ccnc3)C[C@@H]12	–	–	5.481	–
C[C@]12CCC(=O)C=C1C(=O)C[C@@H]1[C@@H]2CC[C@]2(C)C(=O)CC[C@@H]12	1100 nM and 280 nM	280	–	–
C[C@]12CCC(=O)C(O)=C1CC[C@@H]1[C@@H]2CC[C@]2(C)C(=O)CC[C@@H]12 [FORMESTANE]	–	562	–	13.35
